Tests used:
Test in all cases: CTG-3D luminescence at 96 h relative to day-0 seeding control (ratio to day 0); higher = more growth / less cytotoxicity; PDxO 3D drug screen, 96 h, CTG-3D normalised to day-0 seeding control.
[1] = system: HCI-017.E2 (organoid from an ER-positive breast cancer xenograft)
[2] = system: HCI-002 (organoid from a triple-negative breast cancer xenograft)
[3] = system: HCI-023 (organoid from a triple-negative breast cancer xenograft)
[4] = system: HCI-001 (organoid from a triple-negative breast cancer xenograft)
[5] = system: MDA-MB-231

COc1cccc2c1C(=O)c1c(O)c3c(c(O)c1C2=O)C[C@@](O)(C(=O)CO)C[C@@H]3O[C@H]1C[C@H](N)[C@H](O)[C@H](C)O1 [doxorubicin]
CTG-3D luminescence at 96 h
Conditions | 12.5 pM | 0.00025 µM | 0.005 µM | 0.1 µM | 1 µM | 10 µM | 100 µM | 625 fM
[1] | 1.87 | 2.06 | 2.07 | 1.89 | 1.2724 | 0.484 | 0.598 | 2.26
[5] | 4.38 | 4.45 | 4.38 | 3.75 | 1.48 | 0.458 | 0.288 | 4.4

CTG-3D luminescence at 96 h
Conditions | 12.5 pM | 0.00025 µM | 0.005 µM | 0.1 µM | 1 µM | 10 µM | 100 µM | 625 fM
[1], days in culture: 85 | 2.94 | 3.18 | 2.56 | 2.01 | 1.71 | 0.616 | 0.808 | 2.4
[2], days in culture: 62 | 2.87 | 2.62 | 2.59 | 1.61 | 0.668 | 0.0335 | 0.00573 | 2.88
[2], days in culture: 82 | 3.24 | 2.83 | 2.22 | 2.02 | 0.999 | 0.0349 | 0.0154 | 3.02
[2], days in culture: 91 | 4.09 | 3.38 | 3.24 | 2.3 | 1.03 | 0.0844 | 0.0322 | 3.96
[2], days in culture: 191 | 2.74 | 2.53 | 2.51 | 1.69 | 1.02 | 0.0535 | 0.00895 | 2.52
[2], days in culture: 209 | 2.54 | 2.37 | 2.28 | 1.51 | 0.836 | 0.0193 | 0.00843 | 2.44
[2], days in culture: 227 | 4.92 | 5.5 | 4.24 | 3.32 | 1.62 | 0.0266 | -0.0178 | 5.72
[3], days in culture: 111 | 1.54 | 1.21 | 1.32 | 1.1 | 0.426 | 0.00296 | 0.00755 | 1.45
[3], days in culture: 128 | 1.92 | 1.73 | 1.62 | 1.33 | 0.321 | 0.00812 | 0.00367 | 2.08
[4], days in culture: 240 | 1.83 | 0.976 | 0.995 | 1.06 | 0.795 | 0.102 | 0.0662 | 1.82
[4], days in culture: 260 | 2.69 | 0.99 | 2.06 | 1.71 | 0.863 | 0.169 | 0.0518 | 1.54
[4], days in culture: 269 | 1.42 | 1.69 | 1.45 | 1.69 | 0.478 | 0.0884 | 0.00519 | 1.42
[4], days in culture: 327 | 1.28 | 1.49 | 1.57 | 1.78 | 1.18 | 0.146 | 0.284 | 1.5
[4], days in culture: 346 | 1.4 | 1.22 | 1.02 | 1.01 | 0.949 | 0.141 | 0.182 | 1.14
[4], days in culture: 364 | 1.33 | 1.06 | 1.3 | 0.946 | 0.616 | 0.116 | 0.143 | 1.49

Nc1ccn([C@@H]2O[C@H](CO)[C@@H](O)C2(F)F)c(=O)n1 [gemcitabine]
CTG-3D luminescence at 96 h
Conditions | 12.5 pM | 0.00025 µM | 0.005 µM | 0.1 µM | 1 µM | 10 µM | 100 µM | 625 fM
[1] | 2.08 | 2.07 | 1.97 | 1.88 | 1.74 | 1.54 | 1.67 | 2.23
[5] | 4.42 | 4.37 | 4.14 | 2.62 | 2 | 1.11 | 0.848 | 4.44

CTG-3D luminescence at 96 h
Conditions | 12.5 pM | 0.00025 µM | 0.005 µM | 0.1 µM | 1 µM | 10 µM | 100 µM | 625 fM
[1], days in culture: 85 | 2.64 | 2.91 | 2.88 | 1.88 | 1.87 | 1.29 | 1.7 | 2.11
[2], days in culture: 62 | 2.82 | 2.59 | 2.68 | 0.347 | 0.301 | 0.302 | 0.333 | 2.87
[2], days in culture: 82 | 3.16 | 3.03 | 2.46 | 0.461 | 0.431 | 0.271 | 0.234 | 3.23
[2], days in culture: 91 | 4.24 | 3.02 | 3.08 | 0.544 | 0.381 | 0.346 | 0.287 | 3.87
[2], days in culture: 191 | 2.63 | 2.79 | 2.69 | 0.517 | 0.487 | 0.295 | 0.366 | 2.52
[2], days in culture: 209 | 2.52 | 2.33 | 2.08 | 0.339 | 0.32 | 0.178 | 0.242 | 2.33
[2], days in culture: 227 | 5.51 | 5.33 | 4.57 | 1.05 | 0.78 | 0.657 | 0.547 | 4.99
[3], days in culture: 111 | 1.4 | 1.31 | 1.05 | 0.265 | 0.33 | 0.28 | 0.0585 | 1.43
[3], days in culture: 128 | 1.62 | 1.78 | 1.15 | 0.416 | 0.26 | 0.399 | 0.0826 | 1.9
[4], days in culture: 240 | 1.56 | 1.26 | 1.1 | 0.596 | 0.86 | 0.454 | 0.527 | 1.22
[4], days in culture: 260 | 2.47 | 0.95 | 1.44 | 0.622 | 0.617 | 0.522 | 0.302 | 1.77
[4], days in culture: 269 | 1.5 | 1.62 | 1.4 | 0.602 | 0.42 | 0.735 | 0.331 | 1.53
[4], days in culture: 327 | 1.48 | 0.959 | 1.31 | 0.497 | 0.506 | 0.37 | 0.222 | 1.83
[4], days in culture: 346 | 1.31 | 1.2 | 1.1 | 0.33 | 0.429 | 0.5 | 0.259 | 1.1
[4], days in culture: 364 | 1.41 | 1.23 | 1.3 | 0.275 | 0.401 | 0.332 | 0.147 | 1.33

CC(C)(C(=O)NCC(F)(F)C(F)(F)F)C(=O)N[C@@H]1C(=O)Nc2ccccc2-c2ccccc21
CTG-3D luminescence at 96 h
Conditions | 12.5 pM | 0.00025 µM | 0.005 µM | 0.1 µM | 1 µM | 10 µM | 100 µM | 625 fM
[1] | 1.84 | 2.1 | 2.09 | 2.12 | 2.04 | 1.78 | 1.23 | 2.06
[5] | 4.58 | 4.53 | 4.6 | 4.48 | 4.6 | 4.7 | 4.04 | 4.6

CTG-3D luminescence at 96 h
Conditions | 12.5 pM | 0.00025 µM | 0.005 µM | 0.1 µM | 1 µM | 10 µM | 100 µM | 625 fM
[1], days in culture: 85 | 2.5 | 2.8 | 2.42 | 1.44 | 1.19 | 1.24 | 1.25 | 2.29
[2], days in culture: 62 | 2.81 | 2.3 | 2.94 | 2.74 | 2.12 | 3.01 | 2.47 | 2.63
[2], days in culture: 82 | 3.56 | 2.71 | 2.34 | 2.94 | 2.61 | 3.03 | 1.34 | 3.05
[2], days in culture: 91 | 4.71 | 3.94 | 3.16 | 3.91 | 2.99 | 3.51 | 2.15 | 4.61
[2], days in culture: 191 | 2.82 | 2.44 | 2.45 | 2.13 | 2.48 | 2.26 | 1.81 | 2.66
[2], days in culture: 209 | 2.45 | 2.57 | 2.38 | 2.22 | 2.25 | 1.91 | 1.55 | 2.4
[2], days in culture: 227 | 5.87 | 5.33 | 5.89 | 5.45 | 4.95 | 5.63 | 2.44 | 6.16
[3], days in culture: 111 | 1.36 | 1.08 | 0.961 | 0.975 | 0.945 | 1.09 | 0.672 | 1.53
[3], days in culture: 128 | 1.61 | 1.47 | 1.06 | 1.27 | 1.17 | 1.65 | 0.804 | 1.64
[4], days in culture: 240 | 1.46 | 1.17 | 0.87 | 0.976 | 1.16 | 0.943 | 1.23 | 1.67
[4], days in culture: 260 | 2.5 | 1.03 | 1.58 | 1.23 | 1.44 | 1.29 | 1.15 | 2.09
[4], days in culture: 269 | 1.46 | 1.61 | 1.38 | 1.81 | 1.67 | 2.38 | 1.78 | 1.58
[4], days in culture: 327 | 1.38 | 1.27 | 1.54 | 1.77 | 1.29 | 1.04 | 1.38 | 1.83
[4], days in culture: 346 | 1.54 | 1.31 | 1.17 | 1.11 | 1.26 | 1.31 | 1.57 | 1.29
[4], days in culture: 364 | 1.49 | 1.25 | 1.38 | 1.09 | 1.14 | 1.29 | 0.937 | 1.4

From the supplement of paper PMC8882468
